Measurements published in US20070161547A1, “Modulation of survivin expression” (priority 2003, published 2007).
Oligonucleotides are written 5' to 3', each unit as a sugar letter and its base; * is a phosphorothioate linkage, no mark a phosphodiester; rarer units and linkages stand in square brackets, end groups in braces. Plain capitals give the bases only. r = 2'-OH (RNA); {P} = phosphate

Tested on: human survivin mRNA
Assay: Inhibition of human survivin mRNA by single-stranded asRNA in HUVEC, real-time quantitative PCR
Assay type: cell-based
Parameters: concentration or dose not given beside the values
Settings: Table 7
Procedure: HUVEC were obtained from ATCC and routinely cultured in EBM (Clonetics Corp, Walkersille, Md.) supplemented with SingleQuots supplements. Cells were routinely passaged by trypsinizaiton and dilution when they reached 90% confluence were maintained for up to 15 passages. For cells grown in 96-well plates (10,000 cells/well), wells were washed once with 200 μL OPTI-MEM-1™ reduced-serum medium (Gibco BRL) and then treated with 130 μL of OPTI-MEM-1™ containing 12 μg/mL LIPOFECTIN™ (Gibco BRL) and the desired double-stranded compounds at a final concentration of 25 nM. After 5 hours of treatment, the medium was replaced with fresh medium. Cells were harvested 16 hours after dsRNA treatment, at which time RNA was isolated and target reduction measured by RT-PCR.
A series of single-stranded olgometric compounds (asRNA) was evaluated for their ability to inhibit human survivin in human umbilical vein endothelial cells (HUVEC). Culture methods used for HUVEC are found, for example, at www.atcc.org.
Data were obtained by real-time quantitative PCR as described in other examples herein.

Row | Substance | % INHIB, inhibition of human survivin mRNA levels by asRNA oligomeric compounds [%]
1 | 347423 (antisense {P}-rA*rU*rC*rC*rA*rU*rG*rG*rC*rA*rG*rC*rC*rA*rG*rC*rU*rG*rC*rU) [compound 347423] | 55
2 | 347424 (antisense {P}-rA*rA*rC*rC*rC*rU*rG*rG*rA*rA*rG*rU*rG*rG*rU*rG*rC*rA*rG*rC) [compound 347424] | 69
3 | 347425 (antisense {P}-rA*rG*rG*rC*rU*rG*rG*rU*rG*rG*rC*rA*rC*rC*rA*rG*rG*rG*rA*rA) [compound 347425] | 90
4 | 347426 (antisense {P}-rA*rU*rU*rU*rG*rA*rA*rA*rA*rU*rG*rU*rU*rG*rA*rU*rC*rU*rC*rC) [compound 347426] | 60
5 | 347427 (antisense {P}-rA*rG*rC*rA*rC*rA*rG*rU*rU*rG*rA*rA*rA*rC*rA*rU*rC*rU*rA*rA) [compound 347427] | 54
6 | 347428 (antisense {P}-rA*rG*rA*rA*rG*rC*rA*rC*rC*rU*rC*rU*rG*rG*rU*rG*rC*rC*rA*rC) [compound 347428] | 60
7 | 347429 (antisense {P}-rU*rC*rC*rC*rU*rC*rA*rC*rU*rU*rC*rU*rC*rA*rC*rC*rU*rG*rG*rU) [compound 347429] | 62
